# Results as given in US11274092B2, “Potassium channel inhibitors” (ACESION PHARMA ApS, priority 2016, dated 2022).
# Biological target: T1, human SK3 channel (hKCa2.3) (Homo sapiens, UniProt Q9UGI6)
# T1 construct: expressed in transfected cells
# Assay: Automated whole cell patch-clamp (QPatch 16 HT), inhibition of SK3 current
# Assay type: cell-based
# Conditions: HEK-293 cells stably expressing hKCa2.3; symmetrical K+ solutions, free calcium 400 nM; effects normalized to N-methyl bicuculline
# Protocol: Automated whole cell patch-clamp recordings were performed using a QPatch 16 HT system and single-hole Qplates (Biolin Scientific, Sophion, Denmark) on HEK-293 cells stably expressing the human SK3 channel (hKCa2.3). Cells were cultured and prepared for experiments using normal cell culturing procedures. A total of 4-5 million cells were used per experiment. The Qpatch automatically generates giga sealing, whole-cell formation, compound application and recording of current. hKCa2.3 currents were recorded in symmetrical K^+ solutions, with an intracellular solution consisting of in mM: KCl 108; KOH/EGTA (ethylene glycol-bis(2-aminoethylether)-N,N,N′,N′-tetraacetic acid) 31.25/10; CaCl2) 8.1; MgCl2 1.2; HEPES (2-[4-(2-hydroxyethyl)piperazin-1-yl]ethanesulfonic acid) 10; KOH 15, pH adjusted to pH=7.2 with HCl. The free calcium concentration was calculated to 400 nM. The extracellular solution consisted of in mM: KCl 150; CaCl2) 0.1; MgCl2 3; HEPES 10; Glucose 10, pH=7.4 with KOH. The cells were held at 0 mV and hKCa2.3 currents were elicited by a linear voltage ramp from […] (200 ms in duration) applied every 5th second. The compound application protocol consisted of 12 recording periods lasting from 50-200 s: 1) Baseline recordings in extracellular solution; 2) Application of the positive control N-methyl bicuculline (100 μM), which is characterized by full efficacy, fast on- and off-rate; 3-4) Wash-out; 5-9) Increasing concentrations of test compound to establish an IC50 value; 10-11) Wash-out; 12) positive control with compound NS8593 (N-[(1R)-1,2,3,4-tetrahydro-1-naphthalenyl]-1H-benzimidazol-2-amine) (1 μM). Data were sampled at 10 kHz, 4th order Bessel filter, cut-off frequency 3 kHz. Currents were compensated for run-down. Potency was quantified as the concentration needed to inhibit half of the SK channel activity and reported as an IC50 value. All effects of compounds of the present invention as tested were normalized to the observed inhibitory effect of N-methyl bicuculline.
row,IC50,Compound
1,< 10 µM,"O=C(CC(Nc1nc2ccccc2[nH]1)c1cccc(C(F)(F)F)c1)NCCOC(F)(F)F (single isomer, unassigned) [Example 67a, 3-[(1H-1,3-benzodiazol-2-yl)amino]-N-[2-(trifluoromethoxy)ethyl]-3-[3-(trifluoromethyl)phenyl]propanamide]"
2,< 10 µM,"O=C(CC(Nc1nc2ccccc2[nH]1)c1cccc(C(F)(F)F)c1)NCCOCC(F)(F)F (single isomer, unassigned) [Example 68a, 3-[(1H-1,3-benzodiazol-2-yl)amino]-N-[2-(2,2,2-trifluoroethoxy)ethyl]-3-[3-(trifluoromethyl)phenyl]propanamide]"
3,< 10 µM,"COC[C@H](NC(=O)CC(Nc1nc2ccccc2[nH]1)c1cccc(C(F)(F)F)c1)c1ccccc1 (single isomer, unassigned) [Example 69a]"
4,< 10 µM,"COC[C@H](NC(=O)CC(Nc1nc2ccccc2[nH]1)c1cccc(SC(F)(F)F)c1)c1ccccc1 (single isomer, unassigned) [Example 70a]"
5,< 10 µM,"O=C(C(Nc1nc2ccccc2[nH]1)c1cccc(C(F)(F)F)c1)N1CCC1 (single isomer, unassigned; (+)) [Example 34a, (+)1-(azetidin-1-yl)-2-[(1H-1,3-benzodiazol-2-yl)amino]-2-[3-(trifluoromethyl)phenyl]ethan-1-one]"
6,10 to 100 µM,"CCN(CCO)C(=O)C(Nc1nc2ccccc2[nH]1)c1cccc(C(F)(F)F)c1 (single isomer, unassigned; (+)) [Example 38b, (+)2-[(1H-1,3-benzodiazol-2-yl)amino]-N-ethyl-N-(2-hydroxyethyl)-2-[3-(trifluoromethyl)phenyl]acetamide]"
7,10 to 100 µM,"CCN(CCO)C(=O)CC(Nc1nc2ccccc2[nH]1)c1ccc(Cl)c(C)c1 (single isomer, unassigned; (+)) [Example 40b, (+)3-[(1H-1,3-benzodiazol-2-yl)amino]-3-(4-chloro-3-methylphenyl)-N-ethyl-N-(2-hydroxyethyl)propanamide]"
8,10 to 100 µM,"CC(C)(O)CNC(=O)CC(Nc1nc2ccccc2[nH]1)c1cccc(C(F)(F)F)c1 (single isomer, unassigned; (-)) [Example 4a, (−) 3-[(1H-1,3-benzodiazol-2-yl)amino]-N-(2-hydroxy-2-methylpropyl)-3-[3-(trifluoromethyl)phenyl]propanamide]"
9,< 10 µM,"CN(CCCO)C(=O)CC(Nc1nc2ccccc2[nH]1)c1cccc(C(F)(F)F)c1 (single isomer, unassigned; (-)) [Example 17a, (−) 3-[(1H-1,3-benzodiazol-2-yl)amino]-N-(3-hydroxypropyl)-N-methyl-3-[3-(trifluoromethyl)phenyl]propanamide]"
10,10 to 100 µM,"CN1CCN(C(=O)C(Nc2nc3ccccc3[nH]2)c2cccc(C(F)(F)F)c2)CC1 (single isomer, unassigned; (-)) [Example 27a, (−)2-[(1H-1,3-benzodiazol-2-yl)amino]-1-(4-methylpiperazin-1-yl)-2-[3-(trifluoromethyl)phenyl]ethan-1-one]"
11,< 10 µM,"CCN(CCO)C(=O)C(Nc1nc2ccccc2[nH]1)c1cccc(C(F)(F)F)c1 (single isomer, unassigned; (-)) [Example 38a, (−)2-[(1H-1,3-benzodiazol-2-yl)amino]-N-ethyl-N-(2-hydroxyethyl)-2-[3-(trifluoromethyl)phenyl]acetamide]"
12,< 10 µM,"CCN(CCO)C(=O)CC(Nc1nc2ccccc2[nH]1)c1ccc(F)c(C)c1 (single isomer, unassigned; (-)) [Example 39a, (−)3-[(1H-1,3-benzodiazol-2-yl)amino]-N-ethyl-3-(4-fluoro-3-methylphenyl)-N-(2-hydroxyethyl)propanamide]"
13,< 10 µM,"CCN(CCO)C(=O)CC(Nc1nc2ccccc2[nH]1)c1ccc(Cl)c(C)c1 (single isomer, unassigned; (-)) [Example 40a, (−)3-[(1H-1,3-benzodiazol-2-yl)amino]-3-(4-chloro-3-methylphenyl)-N-ethyl-N-(2-hydroxyethyl)propanamide]"
14,< 10 µM,"CCN(CCO)C(=O)CC(Nc1nc2ccccc2[nH]1)c1cccc(C(F)(F)F)c1 (single isomer, unassigned; (-)) [Example 41a, (−)3-[(1H-1,3-benzodiazol-2-yl)amino]-N-ethyl-N-(2-hydroxyethyl)-3-[3-(trifluoromethyl)phenyl]propanamide]"
15,< 10 µM,"COCCNC(=O)CC(Nc1nc2ccccc2[nH]1)c1cccc(C(F)(F)F)c1 (single isomer, unassigned; (-)) [Example 42a, (−)3-[(1H-1,3-benzodiazol-2-yl)amino]-N-(2-methoxyethyl)-3-[3-(trifluoromethyl)phenyl]propanamide]"
16,< 10 µM,"CN(CC#N)C(=O)CC(Nc1nc2ccccc2[nH]1)c1cccc(C(F)(F)F)c1 (single isomer, unassigned; (-)) [Example 56a, (−)3-[(1H-1,3-benzodiazol-2-yl)amino]-N-(cyanomethyl)-N-methyl-3-[3-(trifluoromethyl)phenyl]propanamide]"
17,< 10 µM,"COC(=O)CN(C)C(=O)CC(Nc1nc2ccccc2[nH]1)c1cccc(C(F)(F)F)c1 (single isomer, unassigned; (-)) [Example 57a, (−)Methyl 2-{3-[(1H-1,3-benzodiazol-2-yl)amino]-N-methyl-3-[3-(trifluoromethyl)phenyl]propanamido}acetate]"
18,< 10 µM,"COC(=O)CNC(=O)CC(Nc1nc2ccccc2[nH]1)c1cccc(C(F)(F)F)c1 (single isomer, unassigned; (-)) [Example 59a, (−)Methyl 2-{3-[(1H-1,3-benzodiazol-2-yl)amino]-3-[3-(trifluoromethyl)phenyl]propanamido}acetate]"
19,< 10 µM,"CCc1cc(C(CC(=O)N(CC)CCO)Nc2nc3ccccc3[nH]2)ccc1F (single isomer, unassigned; (-)) [Example 65a, (−)3-[(1H-1,3-benzodiazol-2-yl)amino]-N-ethyl-3-(3-ethyl-4-fluorophenyl)-N-(2-hydroxyethyl)propanamide]"
20,< 10 µM,"CSCCNC(=O)CC(Nc1nc2ccccc2[nH]1)c1cccc(C(F)(F)F)c1 (centres unmarked) [Example 1, 3-[(1H-1,3-benzodiazol-2-yl)amino]-N-[2-(methylsulfanyl)ethyl]-3-[3-(trifluoromethyl)phenyl]propanamide]"
21,10 to 100 µM,"CN(C)CCN(C)C(=O)CC(Nc1nc2ccccc2[nH]1)c1cccc(C(F)(F)F)c1 (centres unmarked) [Example 2, 3-[(1H-1,3-benzodiazol-2-yl)amino]-N-[2-(dimethylamino)ethyl]-N-methyl-3-[3-(trifluoromethyl)phenyl]propanamide]"
22,10 to 100 µM,"CCS(=O)(=O)NCCNC(=O)CC(Nc1nc2ccccc2[nH]1)c1cccc(C(F)(F)F)c1 (centres unmarked) [Example 3, 3-[(1H-1,3-benzodiazol-2-yl)amino]-N-(2-ethanesulfonamidoethyl)-3-[3-(trifluoromethyl)phenyl]propanamide]"
23,10 to 100 µM,"O=C(CC(Nc1nc2ccccc2[nH]1)c1cccc(C(F)(F)F)c1)N1CCC(O)CC1 (centres unmarked) [Example 5, 3-[(1H-1,3-benzodiazol-2-yl)amino]-1-(4-hydroxypiperidin-1-yl)-3-[3-(trifluoromethyl)phenyl]propan-1-one]"
24,< 10 µM,"O=C(CC(Nc1nc2ccccc2[nH]1)c1cccc(C(F)(F)F)c1)N1CC(O)C1 (centres unmarked) [Example 6, 3-[(1H-1,3-benzodiazol-2-yl)amino]-1-(3-hydroxyazetidin-1-yl)-3-[3-(trifluoromethyl)phenyl]propan-1-one]"
25,10 to 100 µM,"O=C(CC(Nc1nc2ccccc2[nH]1)c1cccc(C(F)(F)F)c1)NCC1COC1 (centres unmarked) [Example 7, 3-[(1H-1,3-benzodiazol-2-yl)amino]-N-(oxetan-3-ylmethyl)-3-[3-(trifluoromethyl)phenyl]propanamide]"
26,< 10 µM,"O=C(CC(Nc1nc2ccccc2[nH]1)c1cccc(C(F)(F)F)c1)NCC1CCCO1 (centres unmarked) [Example 8, 3-[(1H-1,3-benzodiazol-2-yl)amino]-N-(oxolan-2-ylmethyl)-3-[3-(trifluoromethyl)phenyl]propanamide]"
27,< 10 µM,"O=C(CC(Nc1nc2ccccc2[nH]1)c1cccc(C(F)(F)F)c1)N[C@H]1CCOC1 (stereo partly drawn) [Example 9, 3-[(1H-1,3-benzodiazol-2-yl)amino]-N-[(3S)-oxolan-3-yl]-3-[3-(trifluoromethyl)phenyl]propanamide]"
28,< 10 µM,"O=C(CC(Nc1nc2ccccc2[nH]1)c1cccc(C(F)(F)F)c1)NC1COC1 (centres unmarked) [Example 10, 3-[(1H-1,3-benzodiazol-2-yl)amino]-N-(oxetan-3-yl)-3-[3-(trifluoromethyl)phenyl]propanamide]"
29,10 to 100 µM,"CN1CCN(C(=O)CC(Nc2nc3ccccc3[nH]2)c2cccc(C(F)(F)F)c2)CC1=O (centres unmarked) [Example 11, 4-{3-[(1H-1,3-benzodiazol-2-yl)amino]-3-[3-(trifluoromethyl)phenyl]propanoyl}-1-methylpiperazin-2-one]"
